From ChEMBL document CHEMBL3593242, “Crystal structures of the apo form and a complex of human LMW-PTP with a phosphonic acid provide new evidence of a secondary site potentially related to the anchorage of natural substrates” (Bioorg Med Chem, 2015)

Experiments:
[1] = target: T1, Low molecular weight phosphotyrosine protein phosphatase (Mus musculus, UniProt Q9D358); test: Competitive inhibition of mouse LMW-PTP expressed in Escherichia coli using pNPP substrate by Dixon plot
T1 sequence (Q9D358 whole entry): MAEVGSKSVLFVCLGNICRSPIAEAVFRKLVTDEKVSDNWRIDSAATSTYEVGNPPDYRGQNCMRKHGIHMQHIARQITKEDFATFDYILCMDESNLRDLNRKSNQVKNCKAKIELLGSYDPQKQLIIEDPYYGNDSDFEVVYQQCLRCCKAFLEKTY

[2] = target: T2, Ectonucleotide pyrophosphatase/phosphodiesterase family member 3 (Bos taurus, UniProt P15396); test: Inhibition of bovine intestinal 5'-nucleotide phosphodiesterase using 4-nitrophenyl phenylphosphonate substrate by spectrophotometry
T2 sequence (P15396 whole entry): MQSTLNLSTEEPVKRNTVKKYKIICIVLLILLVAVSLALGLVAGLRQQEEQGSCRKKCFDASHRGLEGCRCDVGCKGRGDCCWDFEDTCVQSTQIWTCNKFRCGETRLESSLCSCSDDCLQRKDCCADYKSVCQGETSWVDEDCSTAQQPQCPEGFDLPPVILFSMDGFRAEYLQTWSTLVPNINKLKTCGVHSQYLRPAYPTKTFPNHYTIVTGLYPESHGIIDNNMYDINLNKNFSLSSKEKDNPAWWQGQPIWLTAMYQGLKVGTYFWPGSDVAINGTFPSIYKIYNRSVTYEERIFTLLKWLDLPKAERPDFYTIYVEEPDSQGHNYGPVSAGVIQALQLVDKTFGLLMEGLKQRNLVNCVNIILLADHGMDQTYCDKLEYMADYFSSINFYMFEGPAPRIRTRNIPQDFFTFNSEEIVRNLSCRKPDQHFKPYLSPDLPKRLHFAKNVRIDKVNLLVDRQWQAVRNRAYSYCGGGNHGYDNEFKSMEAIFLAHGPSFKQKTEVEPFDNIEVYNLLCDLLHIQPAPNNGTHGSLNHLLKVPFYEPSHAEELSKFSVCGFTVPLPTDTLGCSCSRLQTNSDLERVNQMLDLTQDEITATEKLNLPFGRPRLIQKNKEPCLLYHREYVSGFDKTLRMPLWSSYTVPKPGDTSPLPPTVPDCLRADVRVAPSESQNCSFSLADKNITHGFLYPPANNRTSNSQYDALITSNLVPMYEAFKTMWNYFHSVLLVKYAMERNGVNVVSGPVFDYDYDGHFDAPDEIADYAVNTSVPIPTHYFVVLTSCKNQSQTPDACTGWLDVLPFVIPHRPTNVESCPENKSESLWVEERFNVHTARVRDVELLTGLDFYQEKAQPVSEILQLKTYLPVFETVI

[3] = Inhibition of bovine heart acid phosphatase; parameters: species or system Bos taurus
[4] = target: T3, Tyrosine-protein phosphatase non-receptor type 1 (Homo sapiens, UniProt P18031); test: Inhibition of PTP1B (unknown origin) using […] substrate
T3 sequence (P18031 whole entry): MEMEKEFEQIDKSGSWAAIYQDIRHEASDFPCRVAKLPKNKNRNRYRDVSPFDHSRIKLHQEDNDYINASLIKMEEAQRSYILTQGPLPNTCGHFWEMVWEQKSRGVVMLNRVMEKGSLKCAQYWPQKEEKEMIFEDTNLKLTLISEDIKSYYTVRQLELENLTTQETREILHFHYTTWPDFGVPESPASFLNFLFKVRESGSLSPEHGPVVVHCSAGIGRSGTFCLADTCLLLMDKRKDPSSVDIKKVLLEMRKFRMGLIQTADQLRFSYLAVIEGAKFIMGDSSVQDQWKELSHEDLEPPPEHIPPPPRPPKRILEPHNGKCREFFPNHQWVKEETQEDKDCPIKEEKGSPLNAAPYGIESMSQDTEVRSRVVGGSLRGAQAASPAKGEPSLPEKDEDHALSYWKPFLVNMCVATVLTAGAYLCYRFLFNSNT

[5] = Inhibition of Yersinia-protein YopH using pNPP substrate
[6] = target: Alkaline phosphatase, placental type (Homo sapiens, UniProt P05187); test: Inhibition of human placental alkaline phosphatase using p-nitrophenyl phosphate substrate
Alkaline phosphatase, placental type, sequence (P05187 whole entry): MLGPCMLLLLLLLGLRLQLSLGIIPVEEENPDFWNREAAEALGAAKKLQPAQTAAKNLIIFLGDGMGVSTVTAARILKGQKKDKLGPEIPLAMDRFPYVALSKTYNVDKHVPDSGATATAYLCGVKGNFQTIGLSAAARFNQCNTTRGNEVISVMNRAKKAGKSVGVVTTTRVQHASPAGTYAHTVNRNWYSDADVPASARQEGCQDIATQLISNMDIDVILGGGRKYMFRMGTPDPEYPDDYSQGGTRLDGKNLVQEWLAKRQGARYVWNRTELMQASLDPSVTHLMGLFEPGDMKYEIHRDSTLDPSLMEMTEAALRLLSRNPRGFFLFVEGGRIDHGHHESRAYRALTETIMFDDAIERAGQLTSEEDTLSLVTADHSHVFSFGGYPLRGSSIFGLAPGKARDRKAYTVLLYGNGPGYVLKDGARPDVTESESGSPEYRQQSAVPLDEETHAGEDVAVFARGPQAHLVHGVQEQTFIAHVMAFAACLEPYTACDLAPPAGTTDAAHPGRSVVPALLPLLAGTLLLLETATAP

Compound | Ki [1] [µM] | Ki [2] [µM] | Ki [3] [µM] | Ki [4] [µM] | Ki [5] [µM] | Ki [6] [µM]
O=[N+]([O-])c1ccc(CP(=O)(O)O)cc1 | 124 |  |  |  |  | 
O=P(O)(O)Cc1ccccc1 [BENZYLPHOSPHONIC ACID] |  | 1400 | 4600 | 3000 | 5000 | 580
O=P(O)(O)Cc1ccc(CCl)cc1 | 47 |  |  |  |  | 
